# Data taken from patent publication US12599582B2, “Pyrrole compounds” (ALIGOS THERAPEUTICS, INC., priority 2019, dated 2026).
# Tested on: HBV
# Experiment: HBV-DNA Antiviral Assay Using HepG2.2.15 Cells (extracellular HBV DNA by qPCR)
# Type: cell-based, hepatitis B virus (HBV)
# Details: Hepatitis B virus; HBV DNA inhibition, HepG2.2.15 cells, extracellular HBV DNA by qPCR; read-out: EC50
# Procedure: The following assay procedure describes the HBV antiviral assay. This assay uses HepG2.2.15 cells, which have been transfected with HBV genome, and extracellular HBV DNA quantification as endpoint. Cell viability is assessed in parallel by measuring the intracellular ATP content using the CellTiter-Glo® reagent from Promega.
# On day 0, HepG2.2.15 cells were seeded in 96-well plates at a density of 6.0×10^4 cells/well (0.1 mL/well). The cells were incubated at 37° C. and 5% CO2.
# On day 1, the test articles were diluted and added to cell culture wells (8 concentrations, 4-fold dilution, in duplicate). GLS4, Tenofovir and Sorafenib were used as reference compounds. 100 μL of culture medium containing the compounds was added to the plate, and the final total volume per well was 200 μL. The final concentration of DMSO in the culture medium was 0.5%. The plate map of compound treatment is shown below. The cells were cultured at 37° C. and 5% CO2 for 3 days.
# On day 4, the plates were refreshed with culture media with compounds.
# On day 7, cell viability was assessed using the CellTiter-Glo®, and the cell culture supernatants were collected for determination of HBV DNA by qPCR.
# Extracellular DNA was isolated with QIAamp 96 DNA Blood Kit per the manufacturer's manual. HBV DNA was then quantified by qPCR with HBV specific primers and probes as specified in Table 1 using the FastStart Universal MasterMix from Roche on an ABI-7900HT. The PCR cycle program consisted of 95° C. for 10 min, followed by 40 cycles at 95° C. for 15 sec and 60° C. for 1 min.
# A DNA standard was prepared by dilution of the pAAV2 HBV1.3 plasmid with concentrations ranging from 10 to 1×10^7 copies/uL and used to generate a standard curve by plotting Ct value vs. the concentration of the HBV plasmid DNA standard. The quantity of HBV DNA in each sample was determined by interpolating from the standard curve.
# Cell viability was calculated as follows: % Cell viability=(luminescence value of test sample−average luminescence value of blank)/(average luminescence value of 0.5% DMSO control−average luminescence of blank)×100%. HBV DNA inhibition was calculated as follows: 100−(HBV DNA copy number of test sample−HBV DNA copy number of ETV)/HBV DNA copy number of 0.5% DMSO control−HBV DNA copy number of ETV)×100%. The CC50, EC50 and EC90 values were determined by dose-response curves fitted by GraphPad Prism using “log (agonist) vs. response—Variable slope”.
row,SMILES,EC50
1,"C#C[C@@H](CO)NC(=O)C(=O)c1c(C)c(C(=O)Nc2ccc(F)c(C#N)c2)n(C)c1C (single isomer, unassigned) [Compound 31a]",0.001 to 0.01 µM
2,"C#C[C@H](CO)NC(=O)C(=O)c1c(C)c(C(=O)Nc2ccc(F)c(C#N)c2)n(C)c1C (single isomer, unassigned) [Compound 31b]",0.001 to 0.01 µM
3,"C#CCNC(=O)C(=O)c1c(C)c(C(=O)Nc2ccc(F)c(C(F)(F)F)c2)n(C)c1C [Compound 1, N-[4-fluoro-3-(trifluoromethyl)phenyl]-1,3,5-trimethyl-4-[2-oxo-2-(prop-2-ynylamino)acetyl]pyrrole-2-carboxamide]",0.001 to 0.01 µM
4,"C=CCNC(=O)C(=O)c1c(C)c(C(=O)Nc2ccc(F)c(C(F)(F)F)c2)n(C)c1C [Compound 2, 4-[2-(allylamino)-2-oxo-acetyl]-N-[4-fluoro-3-(trifluoromethyl)phenyl]-1,3,5-trimethyl-pyrrole-2-carboxamide]",0.001 to 0.01 µM
5,"C#CCNC(=O)C(=O)c1cc(C(=O)Nc2ccc(F)c(C#N)c2)n(C)c1 [Compound 3, N-(3-cyano-4-fluoro-phenyl)-1-methyl-4-[2-oxo-2-(prop-2-ynylamino)acetyl]pyrrole-2-carboxamide]",> 1 µM
6,"C#CCNC(=O)C(=O)c1c(C)c(C(=O)Nc2ccnc(Br)c2F)n(C)c1C [Compound 4, N-(2-bromo-3-fluoro-4-pyridyl)-1,3,5-trimethyl-4-[2-oxo-2-(prop-2-ynylamino)acetyl]pyrrole-2-carboxamide]",0.001 to 0.01 µM
7,"C=CCNC(=O)C(=O)c1c(C)c(C(=O)Nc2ccnc(Br)c2F)n(C)c1C [Compound 5, 4-[2-(allylamino)-2-oxo-acetyl]-N-(2-bromo-3-fluoro-4-pyridy1)-1,3,5-trimethyl-pyrrole-2-carboxamide]",0.01 to 0.1 µM
8,"C#CCNC(=O)C(=O)c1cn(C)c(C(=O)Nc2ccc(F)c(C#N)c2)c1F [Compound 6, N-(3-cyano-4-fluoro-phenyl)-3-fluoro-1-methyl-4-[2-oxo-2-(prop-2-ynylamino)acetyl]pyrrole-2-carboxamide]",0.1 to 1 µM
9,"C=CCNC(=O)C(=O)c1cn(C)c(C(=O)Nc2ccc(F)c(C#N)c2)c1F [Compound 7, 4-[2-(allylamino)-2-oxo-acetyl]-N-(3-cyano-4-fluoro-phenyl)-3-fluoro-1-methyl-pyrrole-2-carboxamide]",0.1 to 1 µM
10,"C#CCNC(=O)C(=O)c1cn(C)c(C(=O)Nc2ccc(F)c(C#N)c2)c1C [Compound 8, N-(3-cyano-4-fluoro-phenyl)-1,3-dimethyl-4-[2-oxo-2-(prop-2-ynylamino)acetyl]pyrrole-2-carboxamide]",0.01 to 0.1 µM
11,"C#CCNC(=O)C(=O)c1c(C)c(C(=O)Nc2ccc(F)c(C#N)c2)n(C)c1Cl [Compound 9, 5-chloro-N-(3-cyano-4-fluoro-phenyl)-1,3-dimethyl-4-[2-oxo-2-(prop-2-ynylamino)acetyl]pyrrole-2-carboxamide]",0.001 to 0.01 µM
12,"C#CCNC(=O)C(=O)c1cn(C)c(C(=O)Nc2ccc(F)c(C#N)c2)c1Cl [Compound 10, 3-chloro-N-(3-cyano-4-fluoro-phenyl)-1-methyl-4-[2-oxo-2-(prop-2-ynylamino)acetyl]pyrrole-2-carboxamide]",0.01 to 0.1 µM
13,"C#CC(C)(C)NC(=O)C(=O)c1c(C)c(C(=O)Nc2ccc(F)c(C#N)c2)n(C)c1C [Compound 11, N-(3-cyano-4-fluoro-phenyl)-4-[2-(1,1-dimethylprop-2-ynylamino)-2-oxo-acetyl]-1,3,5-trimethyl-pyrrole-2-carboxamide]",< 0.001 µM
14,"C#CCNC(=O)C(=O)c1c(F)c(C(=O)Nc2ccc(F)c(C#N)c2)n(C)c1Cl [Compound 12, 5-chloro-N-(3-cyano-4-fluoro-phenyl)-3-fluoro-1-methyl-4-[2-oxo-2-(prop-2-ynylamino)acetyl]pyrrole-2-carboxamide]",0.1 to 1 µM
15,"C#CCNC(=O)C(=O)c1c(F)c(C(=O)Nc2ccc(F)c(C#N)c2)n(C)c1C [Compound 13, N-(3-cyano-4-fluoro-phenyl)-3-fluoro-1,5-dimethyl-4-[2-oxo-2-(prop-2-ynylamino)acetyl]pyrrole-2-carboxamide]",0.001 to 0.01 µM
16,"C#CC1(NC(=O)C(=O)c2c(C)c(C(=O)Nc3ccc(F)c(C#N)c3)n(C)c2C)CC1 [Compound 14, N-(3-cyano-4-fluoro-phenyl)-4-[2-[(1-ethynylcyclopropyl)amino]-2-oxo-acetyl]-1,3,5-trimethyl-pyrrole-2-carboxamide]",< 0.001 µM
17,"C#CC1(NC(=O)C(=O)c2c(C)c(C(=O)Nc3ccc(F)c(C#N)c3)n(C)c2C)CCC1 [Compound 15, N-(3-cyano-4-fluoro-phenyl)-4-[2-[(1-ethynylcyclobutyl)amino]-2-oxo-acetyl]-1,3,5-trimethyl-pyrrole-2-carboxamide]",< 0.001 µM
18,"C#CCNC(=O)C(=O)c1c(Cl)c(C(=O)Nc2ccc(F)c(C#N)c2)n(C)c1Br [Compound 16, 5-bromo-3-chloro-N-(3-cyano-4-fluoro-phenyl)-1-methyl-4-[2-oxo-2-(prop-2-ynylamino)acetyl]pyrrole-2-carboxamide]",0.01 to 0.1 µM
19,"C#C[C@@H](C)NC(=O)C(=O)c1c(C)c(C(=O)Nc2ccc(F)c(C#N)c2)n(C)c1C [Compound 17a, N-(3-cyano-4-fluoro-phenyl)-1,3,5-trimethyl-4-[2-oxo-2-[[(1R)-1-methylprop-2-ynyl]amino]acetyl]pyrrole-2-carboxamide]",0.001 to 0.01 µM
20,"C#C[C@H](C)NC(=O)C(=O)c1c(C)c(C(=O)Nc2ccc(F)c(C#N)c2)n(C)c1C [Compound 17b, N-(3-cyano-4-fluoro-phenyl)-1,3,5-trimethyl-4-[2-oxo-2-[[(1S)-1-methylprop-2-ynyl]amino]acetyl]pyrrole-2-carboxamide]",0.001 to 0.01 µM
21,"C=CCNC(=O)C(=O)c1c(F)c(C(=O)Nc2ccc(F)c(C#N)c2)n(C)c1C [Compound 18, 4-[2-(allylamino)-2-oxo-acetyl]-N-(3-cyano-4-fluoro-phenyl)-3-fluoro-1,5-dimethyl-pyrrole-2-carboxamide]",0.001 to 0.01 µM
22,"Cc1c(C(=O)C(=O)NC2(c3c[nH]nn3)CC(F)(F)C2)c(C)n(C)c1C(=O)Nc1ccc(F)c(C#N)c1 [Compound 19, N-(3-cyano-4-fluoro-phenyl)-4-[2-[[3,3-difluoro-1-(1H-triazol-4-yl)cyclobutyl]amino]-2 oxo-acetyl]-1,3,5-trimethyl-pyrrole-2-carboxamide]",< 0.001 µM
23,"C#CCNC(=O)C(=O)c1c(F)c(C(=O)Nc2ccc(F)c(C#N)c2)n(C)c1Br [Compound 20, 5-bromo-N-(3-cyano-4-fluoro-phenyl)-3-fluoro-1-methyl-4-[2-oxo-2-(prop-2-ynylamino)acetyl]pyrrole-2-carboxamide]",0.01 to 0.1 µM
24,"C#CCNC(=O)C(=O)c1c(Cl)c(C(=O)Nc2ccc(F)c(C#N)c2)n(C)c1C [Compound 21, 3-chloro-N-(3-cyano-4-fluoro-phenyl)-1,5-dimethyl-4-[2-oxo-2-(prop-2-ynylamino)acetyl]pyrrole-2-carboxamide]",0.001 to 0.01 µM
25,"Cc1c(C(=O)C(=O)NCC#CC2CC2)c(C)n(C)c1C(=O)Nc1ccc(F)c(C#N)c1 [Compound 22, N-(3-cyano-4-fluoro-phenyl)-4-[2-(3-cyclopropylprop-2-ynylamino)-2-oxo-acetyl]-1,3,5-trimethyl-pyrrole-2-carboxamide]",0.001 to 0.01 µM
26,"C#C[C@H](NC(=O)C(=O)c1c(C)c(C(=O)Nc2ccc(F)c(C#N)c2)n(C)c1C)C1CC1 [Compound 23a, N-(3-cyano-4-fluoro-phenyl)-1,3,5-trimethyl-4-[2-oxo-2-[[(1R)-1-cyclopropylprop-2-ynyl]amino]acetyl]pyrrole-2-carboxamide]",< 0.001 µM
27,"C#C[C@@H](NC(=O)C(=O)c1c(C)c(C(=O)Nc2ccc(F)c(C#N)c2)n(C)c1C)C1CC1 [Compound 23b, N-(3-cyano-4-fluoro-phenyl)-1,3,5-trimethyl-4-[2-oxo-2-[[(1S)-1-cyclopropylprop-2-ynyl]amino]acetyl]pyrrole-2-carboxamide]",< 0.001 µM
28,"C#CC1(NC(=O)C(=O)c2c(C)c(C(=O)Nc3ccc(F)c(C#N)c3)n(C)c2C)CC(F)(F)C1 [Compound 24, N-(3-cyano-4-fluoro-phenyl)-4-[2-[(1-ethynyl-3,3-difluoro-cyclobutyl)amino]-2-oxo-acetyl]-1,3,5-trimethyl-pyrrole-2-carboxamide]",< 0.001 µM
29,"C#CCNC(=O)C(=O)c1cc(C(=O)Nc2ccc(F)c(C#N)c2)n(C)c1Cl [Compound 25, 5-chloro-N-(3-cyano-4-fluoro-phenyl)-1-methyl-4-[2-oxo-2-(prop-2-ynylamino)acetyl]pyrrole-2-carboxamide]",0.1 to 1 µM
